For test [1], the system named is binding of FN to collagen type I. Nature of the test: Solid-phase binding assay (competitive ELISA) of FN to collagen. The following applies: 4 nM FN incubated with peptide at 4°C overnight, then on wells coated with 10 μg/ml collagen I overnight at 37°C; anti-FN/HRP, ABTS, A405. Set-up: species or system human FN; rat collagen type I. For orientation: In an ELISA, binding on a coated surface is turned into a signal by an enzyme label.
Method: Human FN and rat collagen type I for competitive ELISA were purchased from Sigma-Aldrich (St. Louis, MO).
The FN-peptide solutions were added to collagen or BSA-coated wells, and the plates were incubated overnight at 37°C. The wells were washed and a rabbit anti-FN antibody was added for 90 minutes at room temperature. Wells were washed and then incubated with a horseradish peroxidase-conjugated secondary antibody. After washing was completed, peroxidase activity was quantified using 2,2'-azino-bis-(3-ethylbenthiazoline-6-sulfonic acid). Measurements were done at 405 nm (A405) using a SpectraMax M5 microplate reader (Molecular Device, Sunnyvale, CA).
Bound FN was detected with an anti-FN antibody followed by HRP-conjugated secondary antibody, and ABTS as described in Methods. The absorbance at 405nm was quantitated.

Test [2] deals with left common carotid artery (flow-induced vascular remodeling). Kind of test: Morphometric analysis of carotid artery after complete common carotid ligation. The format is in vivo, FVB/NJ (FVB) mice. The following applies: periadventitial. The text has this: (§1) Animals were anesthetized with isoflurane inhalation. The left common carotid artery was exposed, dissected free from the surrounding connective tissue and completely ligated with 6-0 silk suture just proximal to the carotid bifurcation. […] 4–10 mice were included in each experimental group.
5 groups of animals were processed for morphometric analysis. Mice were fixed with 10% formalin 7 or 14 days after the surgery. The common carotid arteries were harvested and embedded in paraffin.
(§2) For in vivo experiments, the data are shown as the mean ± SEM. For in vitro experiments, the data shown are the means ± SD of a representative experiment, at least 3 independent experiments were performed. One-way ANOVA with post-hoc testing were used for data analysis with GraphPad Prism software (GraphPad, San Diego, CA). If normality test failed, nonparametric Kruskal-Wallis test followed by Dunn's post-hoc test were used. P > 0.05 was not considered significant.

In the next test the test system is collagen type I. Nature of the test: IHC for collagen type I in ligated carotid artery. The format is in vivo, FVB/NJ (FVB) mice. The following applies: 7 days after surgery; 20 μM peptide in pluronic gel; mean ± SEM; R1R2 n = 6, scrambled n = 6. How it is done:
as §1
(§3) Paraffin sections selected from the first mm of the carotid artery in each group were used for immunohistochemistry (IHC). […] Sections were then incubated with appropriate biotinylated secondary antibodies followed by avidin-biotin immunoperoxidase system (Vector Laboratories, Burlingame, CA). Liquid DAB Substrate Chromogen system (Dako, Carpinteria, CA) was used for detection.
(§4) Quantitative IHC analysis was performed on digital images captured with a 20x objective by using Image-Pro Plus software. Data from 3–6 mice for each group were averaged, and the average values ± SEM were shown. For FN, collagen type I, SM-MHC and SM α-actin, color digital images were transformed into gray scale, and the sum of the optical densities from the intima+media area in each section was determined. […] The percent of positive cells is reported as the proliferation index. […] The intima+media region was traced manually. The percent of positively stained area in intima+media to the total traced area was assessed.
(§5) For in vivo experiments, the data are shown as the mean ± SEM. […]

For a further test, the system named is collagen. Nature of the test: Hydroxyproline assay of carotid collagen content. Type of test: in vivo, FVB/NJ (FVB) mice. Conditions: 14 days post-ligation; three carotid arteries pooled per group; colorimetric chloramine T; mean ± SEM, n = 3. Here is the method: as §1
After reconstituting with water, samples were measured using a colorimetric chloramine T assay. Three independent experiments were performed for statistical analysis.
as §2

A further test relates to FN. Kind of test: IHC for FN in ligated carotid artery. Conditions: mean ± SEM. Type of test: in vivo, FVB/NJ (FVB) mice. How it is done: as §1, §3, §4, §2
For test [3], the system named is smooth muscle α-actin (SMAA). Kind of test: IHC for smooth muscle α-actin in ligated carotid artery. Type of test: in vivo, FVB/NJ (FVB) mice. The following applies: 7 days post-ligation; mean ± SEM; scrambled n = 6, R1R2 n = 5 (sham 0.232 ± 0.011, n = 5). How it is done: as §1, §3, §4, §5
Another test relates to CD45 (+) leukocytes. Nature of the test: CD45 IHC, leukocyte infiltration in carotid intima-media. Type of test: in vivo, FVB/NJ (FVB) mice. Conditions: 7 days after ligation; percent of positively stained area; mean ± SEM; R1R2 n = 5, scrambled n = 6. Here is the method: as §1, §3, §4, §2
The test system of another test is VCAM-1. Nature of the test: VCAM-1 IHC in ligated carotid artery. Conditions: 7 days after ligation; percent of positively stained area; mean ± SEM; R1R2 n = 7, control peptide n = 9. Type of test: in vivo, FVB/NJ (FVB) mice. Here is the method:
as §1, §3, §4, §5

Another test deals with ICAM-1. Nature of the test: ICAM-1 IHC in ligated carotid artery. Conditions: 7 days after ligation; percent of positively stained area; mean ± SEM; R1R2 n = 7, control peptide n = 8. Type of test: in vivo, FVB/NJ (FVB) mice. Here is the method:
as §1, §3, §4, §5

Test [4] relates to A7r5 SMCs. Kind of test: A7r5 SMC growth study. The format is cell-based. The following applies: 48hr; 10% FBS after serum starvation and 36 hours peptide treatment; hemocytometer, trypan blue; mean ± SD, n = 5. Here is the method: (§6) Human umbilical vein endothelial cells (HUVECs) and A7r5 SMCs were provided by Resource Center (SB3, NSC 100-2325-B-080-001), National Research Program for Biopharmaceuticals (Hsinchu, Taiwan). HUVECs were maintained in M199 (Life Technologies, Carlsbad, CA) with 25U/ml heparin (Sigma-Aldrich, St. Louis, MO), 10% fetal bovine serum (FBS) and endothelial cell growth supplement (ECGS; Millipore, Billerica, MA). A7r5 SMCs were grown in Dulbecco’s Modified Eagle’s Medium (DMEM) containing high glucose, supplemented with 10% fetal bovine serum. Human U937 cells were grown in RPMI1640 with 10% FBS.
A7r5 cells and HUVECs were growth-arrested and then stimulated with 10% FBS or 10 ng/ml TNF-αovernight after serum starvation as indicated in the figure legend. Briefly, trypan blue-excluding cells were counted with a hemocytometer, and data were analyzed using GraphPad Prism Software (San Diego, CA) as in previous studies. A second observer performed a similar analysis to verify the initial findings.
as §2
Fig 6 R1R2 reduces SMC proliferation and migration. (A) A7r5 SMC growth study over 96 hours. After serum starvation and treatment with R1R2 or scrambled peptides for 36 hours, cells were stimulated with 10% FBS over 96 hours. Cells were counted at the indicated time in the figure (n = 5). (B) A7r5 SMCs were pretreated with R1R2 or scramble peptide for 36 hours. […] (C) Quantitation of SMC migration in the scratch wound healing assay was performed by subtracting the cell-free area 30 hours after PDGF-BB stimulation from the cell-free area in the beginning (n = 5). * indicates p<0.05 and ** p< 0.01.

Test [5] has as its system A7r5 SMCs. Kind of test: SMC migration, scrape wound assay. The following applies: A7r5 SMCs, 36 hours peptide pretreatment, 10 ng/ml PDGF-BB, 30 hours; mean ± SD, n = 3. The format is cell-based. How it is done:
as §6
A scrape wound assay was used to assess the effect of R1R2 and scrambled peptides on SMC migration as described. Briefly, A7r5 SMCs were grown until 90% confluent, followed by serum starvation and treatment with R1R2 and scrambled peptides for 36 hours. Several scrape wounds were then performed across the dish with a sterile yellow pipet tip. We initiated the experiment with treatment of cells with 10 ng/ml PDGF-BB. Photographs of the wound area were taken immediately after PDGF-BB addition (0 hour) and 30 hours postwounding with an Olympus CKX-41 microscope connected to a camera. At least three photographs were taken per group at each time point. Wound areas were determined using Image-Pro Software (Media Cybernetics, MD). Measurement of migration was determined by subtracting the cell-free area 30 hours after PDGF-BB addition from the cell-free area in the beginning of scrape wounds.
For in vivo experiments, the data are shown as the mean ± SEM. For in vitro experiments, the data shown are the means ± SD of a representative experiment, at least 3 independent experiments were performed. […]
Fig 6 R1R2 reduces SMC proliferation and migration. […] Cells were counted at the indicated time in the figure (n = 5). […] (C) Quantitation of SMC migration in the scratch wound healing assay was performed by subtracting the cell-free area 30 hours after PDGF-BB stimulation from the cell-free area in the beginning (n = 5). * indicates p<0.05 and ** p< 0.01.

For test [6], the system named is U937 cells / HUVECs. Kind of test: Monocyte U937 adhesion to HUVECs. The format is cell-based, human. Conditions: HUVECs treated with 10 ng/ml TNF-α; calcein-AM U937 5x10^5 cells/well, 30 minutes at 37°C; fluorescence 485/535; mean ± SD. Here is the method: as §2
The subject of test [7] is U937 cells / HUVECs. Nature of the test: Monocyte U937 transendothelial migration assay. Type of test: cell-based, human. Conditions: HUVECs on 5um transwells, 10 ng/ml TNF-α; U937 1.5x10^5 cells/transwell, 1.5 hours at 37°C; fluorescence 485/535; mean ± SD. How it is done: as §2
[8] abbreviates: 7 day after ligation, 20 μM peptide in 50 μl F-127 pluronic gel, mean ± SEM, scrambled n = 4, R1R2 n = 10.
Setting [9] is: 14 day after ligation, 20 μM peptide in 50 μl F-127 pluronic gel, mean ± SEM, scrambled n = 4, R1R2 n = 9.

With “PGPGAEQPEQSKERNSQERGNGLALPGEELEGQEGGNKPSGENNGPPQGNLRGPLEG [scrambled peptide, reference compound]”, the “effect on FN-collagen type I binding” value in [1] is listed as “had no effect on FN-collagen binding”. In addition, in [2] (7 and 14 days post-ligation, 20 μM peptide in pluronic gel, in words), the “effect on neointimal formation” value was “have no effect on neointimal formation”. For the same sequence, in test [2] (setting [8]), the “EEL Area” value is on record as 91403 ± 3805 (n = 4) μm^2 and the Lumen is reported as 44901 ± 4552 (n = 4) μm^2. In test [2] (setting [9]), the “EEL Area” value was 92240 ± 13572 (n = 4) μm^2, the “Intima+Media” value is reported as 65441 ± 11973 (n = 4) μm^2 and the Lumen is listed as 37551 ± 11976 (n = 4) μm^2. In addition, the “collagen type I IHC intensity in intima-media area” value in the test on collagen type I came to 0.198 ± 0.007. Further, in the test on collagen, the “collagen content, hydroxyproline assay” value was 2.133 ± 0.284. Further, the “FN IHC intensity in intima-media area” value with FN (7 days after ligation, R1R2 n = 6, scrambled n = 6) was 0.144 ± 0.005. The “FN IHC intensity in intima-media area” value in the test with FN (14 days after ligation, R1R2 n = 7, scrambled n = 7) came out at 0.338 ± 0.016. Also, in [3], the “SMAA IHC staining in intima-media area” value was 0.176 ± 0.004. The “CD45 (+) area in intima-media” value in the test with CD45 (+) leukocytes was 0.441 ± 0.049%. In the test with VCAM-1, the “VCAM-1 (+) area in intima-media” value is recorded as 25.72 ± 1.966%. For the same sequence, the “ICAM-1 (+) area in intima-media” value in the test on ICAM-1 is 30.39 ± 3.016%. Also, in the test with A7r5 SMCs [4], the “A7r5 SMC growth, cell number” value is 2.740 ± 0.688 x 10^5. The “SMC migration (cell-free area at 0 h minus cell-free area at 30 hours)” value in the test on A7r5 SMCs [5] was 313537 ± 66925. The “U937 adhesion to HUVECs” value with U937 cells / HUVECs [6] was 259093 ± 14720 cells per cm^2. In the test with U937 cells / HUVECs [7], the U937 transendothelial migration worked out at 110055 ± 42517 cells per well.

The values above are taken from PMC4326127, “Collagen Inhibitory Peptide R1R2 Mediates Vascular Remodeling by Decreasing Inflammation and Smooth Muscle Cell Activation” (PLoS ONE, 2015).
